Measurements as given in PubChem BioAssay (NCI).
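These data come from cells grown in 96-well plates and exposed to compound for 48 hours at five concentrations. At the TGI there is no net growth.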

Assays:
Test in all cases: inhibition of tumour cell growth, NCI panel, 48 h
786-0 renal = tested on: 786-0 renal
BT-549 breast = tested on: BT-549 breast
COLO 205 colon = tested on: COLO 205 colon
HS 578T breast = tested on: HS 578T breast
IGROV1 ovarian = tested on: IGROV1 ovarian
KM12 colon = tested on: KM12 colon
MDA-MB-231 breast = tested on: MDA-MB-231 breast
OVCAR-3 ovarian = tested on: OVCAR-3 ovarian
OVCAR-4 ovarian = tested on: OVCAR-4 ovarian
OVCAR-5 ovarian = tested on: OVCAR-5 ovarian
SN12C renal = tested on: SN12C renal
UACC-62 melanoma = tested on: UACC-62 melanoma
CCRF-CEM leukemia = tested on: CCRF-CEM leukemia
SK-OV-3 ovarian = tested on: SK-OV-3 ovarian

Compound | TGI (786-0 renal) [µM] | TGI (BT-549 breast) [µM] | TGI (COLO 205 colon) [µM] | TGI (HS 578T breast) [µM] | TGI (IGROV1 ovarian) [µM] | TGI (KM12 colon) [µM] | TGI (MDA-MB-231 breast) [µM] | TGI (OVCAR-3 ovarian) [µM] | TGI (OVCAR-4 ovarian) [µM] | TGI (OVCAR-5 ovarian) [µM] | TGI (SN12C renal) [µM] | TGI (UACC-62 melanoma) [µM] | TGI (CCRF-CEM leukemia) [µM] | TGI (SK-OV-3 ovarian) [µM]
CC(O)CC(=O)CO[C@H]1[C@H](O)[C@@H](O)[C@@H](O)[C@@H]2NC(=O)c3c(cc4c(c3O)OCO4)[C@H]21 (some centres undefined) | 0.485 | 0.482 | 0.135 | 0.153 | 0.256 | 0.202 | 0.545 | 0.609 | 0.287 | 0.48 | 0.784 | 0.682 |  | 
COc1ccc(-c2[nH]c(-c3ccc(OC)cc3)c(-c3ccccn3)c2-c2ccccn2)cc1 | > 100 | 99.9 | 61.1 | > 100 | > 100 | > 100 | > 100 | > 100 |  | > 100 | > 100 | > 100 | > 100 | > 100
CN1CN(c2ccccc2)C2(CCN(C3Nc4ccccc4O3)CC2)C1=O (centres undefined) | 49.6 | 37.3 | 30.1 | 37.7 | 58.5 | 51.5 | 44.6 | 31.7 |  | 48.2 | 34.7 | 31 | 57.6 | 48.1
NC1=NCC(CN2CCCCC2)O1 (centres undefined) | > 100 | > 100 | > 100 | > 100 | > 100 | > 100 | > 100 | > 100 |  |  | > 100 | > 100 | > 100 | > 100
COC(=O)CNC(=O)CNC(=O)CSc1nnc(COc2ccc(Cl)cc2)n1-c1ccccc1 | > 100 | 58.8 | > 100 | 78.3 | 39.4 | 47.3 | 39.2 | 37.6 | > 100 | > 100 | > 100 | 33.5 | 57.4 | 
CCOc1cc(/C=N/c2nc3cc4sc(/N=C/c5ccc(O)c(OCC)c5)nc4cc3s2)ccc1O | > 100 | > 100 | > 100 | > 100 | > 100 | > 100 | > 100 | > 100 | > 100 | > 100 | > 100 | > 100 |  | > 100
CC1=NN(c2cccc(Cl)c2)C2(C1=Cc1cccs1)C(Cl)C(=O)N2c1nc2ccccc2s1 (centres undefined) | 29.1 | 49.4 |  | 68.7 | > 100 | > 100 | 41.4 | 52 | > 100 | 41.9 |  |  |  | 
CCOC(=O)c1cc(-c2ccc([N+](=O)[O-])cc2)c([N+](=O)[O-])[nH]1 | > 10 | > 10 |  | > 10 | > 10 | > 10 | > 10 | > 10 | > 10 | > 10 | > 10 | > 10 | > 10 | > 10
CC1=NNC(=O)C1C1CC(c2c[nH]c3ccccc23)=NN(c2ccccc2)C1=O (centres undefined) | 57.7 | > 100 | > 100 | > 100 | > 100 | > 100 | > 100 | > 100 |  | > 100 | > 100 | > 100 | 72.6 | > 100
C=C1C2C[C@@H]3O[C@H]4C[C@H]5O[C@@]6(C[C@@H]7O[C@]8(C[C@H](C)[C@@H]9O[C@@H]%10CC(C=O)O[C@@H]%10C[C@@H]9O8)C[C@H](C)[C@@H]7O6)C[C@H]5O[C@H]4[C@H](C)[C@H]3OC(=O)C[C@H]3CC[C@@H]4OC5[C@H]6O[C@]7(CC[C@H]8CC(=C)[C@H](CC[C@@H](C[C@H]1C)O2)O8)CC6O[C@@H]5[C@@H](O7)[C@H]4O3 (some centres undefined) | 0.971 | < 0.0001 | 0.00103 | < 0.0001 | > 1 |  | > 0.218 | > 1 | > 1 |  | > 1 | > 1 |  | > 1
Cc1ccc(NC(=O)CC(=O)N2N=C(N3CCCCC3)CC2c2ccccc2)cc1 (centres undefined) | > 100 | > 100 | > 100 | > 100 | > 100 | > 100 | > 100 | > 100 | > 100 | > 100 | > 100 | > 100 | > 100 | 
Cc1cn(CC2=NC3CCCCC3N2)c(=O)[nH]c1=O (centres undefined) | > 100 | > 100 | > 100 | > 100 | > 100 |  | > 100 |  |  | > 100 | > 100 | > 100 | > 100 | > 100
COc1ccc(C(OC(=O)[C@H](O[Si](C)(C)C(C)(C)C)[C@@H](NC(=O)c2ccccc2)c2ccccc2)c2ccc(OC)cc2)cc1 | > 100 | > 100 | > 100 | > 100 | > 100 | > 100 | > 100 | > 100 | > 100 | > 100 | > 100 | > 100 | > 100 | 
